Laboratory results: patent publication US5844100A, “Ink compositions containing azo dyes for ink jet printing” (Ilford Imaging Switzerland GmbH, priority 1995, dated 1998)

Tests used:
[1] = Absorption maximum (λ max) in H2O; type: physicochemical
[2] = Dye solubility in water at 20° C., determined spectroscopically; type: physicochemical; details: heated at 50° C. 1 hour, cooled to 20° C., filtered
Procedure: The solubilities of the dyes according to the invention were determined as follows:
An excess of dye was heated at 50° C. in water with stirring for one hour. The mixture was then cooled down to 20° C. and filtered, and the dye content of the clear solution was determined spectroscopically.

Row | SMILES | λ max (nm) in H2O [1] | Solubility (in g per 100 ml) [2]
1 | CCCCCC(=O)Nc1cc(S(=O)(=O)O)cc2cc(S(=O)(=O)O)c(N=Nc3cc(Nc4nc(SCCCS(=O)(=O)O)nc(SCCCS(=O)(=O)O)n4)c(OC)cc3S(=O)(=O)O)c(O)c12 [Compound 109] | 530 nm | 
2 | COc1cc(N=Nc2c(N)ccc3cc(S(=O)(=O)O)cc(O)c23)c(C)cc1Nc1nc(NCCO)nc(Nc2cccc(S(=O)(=O)O)c2)n1 [dye 1, reference compound] |  | 11 g per 100 ml
3 | COc1cc(S(=O)(=O)O)c(N=Nc2c(NCCC#N)ccc3cc(S(=O)(=O)O)cc(O)c23)cc1Nc1nc(SCCCS(=O)(=O)O)nc(SCCCS(=O)(=O)O)n1 [Compound 121] | 542 nm | 
4 | COc1ccc(N=Nc2c(S(=O)(=O)O)cc3cc(S(=O)(=O)O)cc(Nc4nc(SCCCS(=O)(=O)O)nc(SCCCS(=O)(=O)O)n4)c3c2O)cc1S(=O)(=O)O [Compound 116] | 555 nm | 
5 | Cc1cc(Nc2nc(SCCCS(=O)(=O)O)nc(SCCCS(=O)(=O)O)n2)ccc1N=Nc1cc(S(=O)(=O)O)c2cccc(S(=O)(=O)O)c2c1 [Compound 103] | 383 nm | 30 g per 100 ml
6 | COc1cc(N=Nc2cc(S(=O)(=O)O)c3cccc(S(=O)(=O)O)c3c2)c(C)cc1Nc1nc(SCCCS(=O)(=O)O)nc(SCCCS(=O)(=O)O)n1 [Compound 100] | 401 nm | 34 g per 100 ml
7 | Nc1ccc2cc(S(=O)(=O)O)cc(O)c2c1N=Nc1ccc(Nc2nc(SCCCS(=O)(=O)O)nc(SCCCS(=O)(=O)O)n2)cc1S(=O)(=O)O [Compound 118] | 518 nm | 43 g per 100 ml
8 | COc1cc(N=Nc2cccc(S(=O)(=O)O)c2)c(C)cc1Nc1nc(SCCCCS(=O)(=O)O)nc(SCCCCS(=O)(=O)O)n1 [Compound 104] | 383 nm | 
9 | Cc1ccc(N=Nc2c(S(=O)(=O)O)cc3cc(S(=O)(=O)O)cc(Nc4nc(SCCCS(=O)(=O)O)nc(SCCCS(=O)(=O)O)n4)c3c2O)c(S(=O)(=O)O)c1 [Compound 115] | 543 nm | 
10 | CCCCCCNc1nc(NCCCCCC)nc(Nc2cc(S(=O)(=O)O)cc3cc(S(=O)(=O)O)c(N=Nc4ccccc4S(=O)(=O)O)c(O)c23)n1 [dye 5, reference compound] |  | 17 g per 100 ml
11 | CC(=O)Nc1cc(Nc2nc(SCCCS(=O)(=O)O)nc(SCCCS(=O)(=O)O)n2)ccc1N=Nc1cc(S(=O)(=O)O)c2cccc(S(=O)(=O)O)c2c1 [Compound 102] | 394 nm | 
12 | O=S(=O)(O)CCCSc1nc(Nc2ccc(N=Nc3c(S(=O)(=O)O)cc4cccc(NS(=O)(=O)c5ccc(Br)cc5)c4c3O)c(S(=O)(=O)O)c2)nc(SCCCS(=O)(=O)O)n1 [Compound 111] | 526 nm | 
13 | O=S(=O)(O)CCCSc1nc(Nc2ccc(S(=O)(=O)O)c3cc(S(=O)(=O)O)c(N=Nc4ccc5c(S(=O)(=O)O)cccc5c4S(=O)(=O)O)c(O)c23)nc(SCCCS(=O)(=O)O)n1 [Compound 122] | 543 nm | 
14 | Cc1cc(N=Nc2c(Nc3c(C)cccc3C)ccc3cc(S(=O)(=O)O)cc(O)c23)c(S(=O)(=O)O)cc1Nc1nc(SCCCS(=O)(=O)O)nc(SCCCS(=O)(=O)O)n1 [Compound 120] | 529 nm | 
15 | O=C(O)CCNc1ccc2cc(S(=O)(=O)O)cc(O)c2c1N=Nc1ccc(Nc2nc(SCCCS(=O)(=O)O)nc(SCCCS(=O)(=O)O)n2)cc1S(=O)(=O)O [Compound 119] | 535 nm | 
16 | Cc1ccc(S(=O)(=O)Nc2cc(S(=O)(=O)O)cc3cc(S(=O)(=O)O)c(N=Nc4cc(Nc5nc(SCCCS(=O)(=O)O)nc(SCCCS(=O)(=O)O)n5)ccc4S(=O)(=O)O)c(O)c23)cc1 [Compound 113] | 527 nm | 
17 | O=C(Nc1cc(S(=O)(=O)O)cc2cc(S(=O)(=O)O)c(N=Nc3cc(Nc4nc(SCCCS(=O)(=O)O)nc(SCCCS(=O)(=O)O)n4)ccc3S(=O)(=O)O)c(O)c12)c1ccccc1 [Compound 112] | 512 nm | 44 g per 100 ml
